In PubChem BioAssay (NCI):
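Five compound concentrations were applied to cells in 96-well plates for 48 hours; endpoints were derived by simple linear interpolation of the resulting dose-response curve. GI50 is the concentration that inhibits growth by half. The concentration for full growth arrest is given as TGI.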

Legend:
Assay in all cases: inhibition of tumour cell growth, NCI panel, 48 h
SR leukemia = tested on: SR leukemia
SNB-19 CNS = tested on: SNB-19 CNS
SW-620 colon = tested on: SW-620 colon
HCC-2998 colon = tested on: HCC-2998 colon
UO-31 renal = tested on: UO-31 renal
HT29 colon = tested on: HT29 colon
EKVX NSCLC = tested on: EKVX NSCLC
OVCAR-8 ovarian = tested on: OVCAR-8 ovarian
OVCAR-3 ovarian = tested on: OVCAR-3 ovarian
U251 CNS = tested on: U251 CNS
SNB-75 CNS = tested on: SNB-75 CNS
OVCAR-4 ovarian = tested on: OVCAR-4 ovarian
COLO 205 colon = tested on: COLO 205 colon
RXF 393 renal = tested on: RXF 393 renal
SN12C renal = tested on: SN12C renal
K-562 leukemia = tested on: K-562 leukemia
UACC-62 melanoma = tested on: UACC-62 melanoma
TK-10 renal = tested on: TK-10 renal
HCT-15 colon = tested on: HCT-15 colon
BT-549 breast = tested on: BT-549 breast
HOP-92 NSCLC = tested on: HOP-92 NSCLC
SK-MEL-2 melanoma = tested on: SK-MEL-2 melanoma
UACC-257 melanoma = tested on: UACC-257 melanoma
PC-3 prostate = tested on: PC-3 prostate
MCF7 breast = tested on: MCF7 breast
SF-295 CNS = tested on: SF-295 CNS
MOLT-4 leukemia = tested on: MOLT-4 leukemia
SK-MEL-28 melanoma = tested on: SK-MEL-28 melanoma
LOX IMVI melanoma = tested on: LOX IMVI melanoma
HS 578T breast = tested on: HS 578T breast
T-47D breast = tested on: T-47D breast
SK-OV-3 ovarian = tested on: SK-OV-3 ovarian
HL-60(TB) leukemia = tested on: HL-60(TB) leukemia
MDA-MB-435 = tested on: MDA-MB-435
ACHN renal = tested on: ACHN renal
IGROV1 ovarian = tested on: IGROV1 ovarian
SF-539 CNS = tested on: SF-539 CNS
NCI/ADR-RES ovarian = tested on: NCI/ADR-RES ovarian
KM12 colon = tested on: KM12 colon
MDA-MB-231 breast = tested on: MDA-MB-231 breast
A498 renal = tested on: A498 renal
HOP-62 NSCLC = tested on: HOP-62 NSCLC
NCI-H226 lung = tested on: NCI-H226 lung
CCRF-CEM leukemia = tested on: CCRF-CEM leukemia
786-0 renal = tested on: 786-0 renal
MALME-3M melanoma = tested on: MALME-3M melanoma
RPMI-8226 leukemia = tested on: RPMI-8226 leukemia
DU-145 prostate = tested on: DU-145 prostate
CAKI-1 renal = tested on: CAKI-1 renal
A549 NSCLC = tested on: A549 NSCLC
SF-268 CNS = tested on: SF-268 CNS
NCI-H460 lung = tested on: NCI-H460 lung
NCI-H522 lung = tested on: NCI-H522 lung
HCT-116 colon = tested on: HCT-116 colon
OVCAR-5 ovarian = tested on: OVCAR-5 ovarian
SK-MEL-5 melanoma = tested on: SK-MEL-5 melanoma
M14 melanoma = tested on: M14 melanoma

## O=C1CC[C@H](N2Cc3c(OCc4ccc(CN5CCOCC5)cc4)cccc3C2=O)C(=O)N1
SR leukemia
  GI50: 4.83 µM
  TGI: > 100 µM
SNB-19 CNS
  GI50: > 100 µM
  TGI: > 100 µM
SW-620 colon
  GI50: > 100 µM
  TGI: > 100 µM
HCC-2998 colon
  GI50: > 100 µM
  TGI: > 100 µM
UO-31 renal
  GI50: > 100 µM
  TGI: > 100 µM
HT29 colon
  GI50: > 100 µM
  TGI: > 100 µM
EKVX NSCLC
  GI50: > 100 µM
  TGI: > 100 µM
OVCAR-8 ovarian
  GI50: > 100 µM
  TGI: > 100 µM
OVCAR-3 ovarian
  GI50: > 100 µM
  TGI: > 100 µM
U251 CNS
  GI50: > 100 µM
  TGI: > 100 µM
SNB-75 CNS
  GI50: > 100 µM
  TGI: > 100 µM
OVCAR-4 ovarian
  GI50: > 100 µM
  TGI: > 100 µM
COLO 205 colon
  GI50: > 100 µM
  TGI: > 100 µM
RXF 393 renal
  GI50: > 100 µM
  TGI: > 100 µM
SN12C renal
  GI50: > 100 µM
  TGI: > 100 µM
K-562 leukemia
  GI50: > 100 µM
  TGI: > 100 µM
UACC-62 melanoma
  GI50: > 100 µM
  TGI: > 100 µM
TK-10 renal
  GI50: > 100 µM
  TGI: > 100 µM
HCT-15 colon
  GI50: > 100 µM
  TGI: > 100 µM
BT-549 breast
  GI50: 98.9 µM
  TGI: > 100 µM
HOP-92 NSCLC
  GI50: > 100 µM
  TGI: > 100 µM
SK-MEL-2 melanoma
  GI50: > 100 µM
  TGI: > 100 µM
UACC-257 melanoma
  GI50: > 100 µM
  TGI: > 100 µM
PC-3 prostate
  GI50: > 100 µM
  TGI: > 100 µM
MCF7 breast
  GI50: > 100 µM
  TGI: > 100 µM
SF-295 CNS
  GI50: > 100 µM
  TGI: > 100 µM
MOLT-4 leukemia
  GI50: > 100 µM
  TGI: > 100 µM
SK-MEL-28 melanoma
  GI50: > 100 µM
  TGI: > 100 µM
LOX IMVI melanoma
  GI50: > 100 µM
  TGI: > 100 µM
HS 578T breast
  GI50: > 100 µM
  TGI: > 100 µM
T-47D breast
  GI50: > 100 µM
  TGI: > 100 µM
SK-OV-3 ovarian
  GI50: > 100 µM
  TGI: > 100 µM
HL-60(TB) leukemia
  GI50: 77.6 µM
  TGI: > 100 µM
MDA-MB-435
  GI50: > 100 µM
  TGI: > 100 µM
ACHN renal
  GI50: > 100 µM
  TGI: > 100 µM
IGROV1 ovarian
  GI50: > 100 µM
  TGI: > 100 µM
SF-539 CNS
  GI50: > 100 µM
  TGI: > 100 µM
NCI/ADR-RES ovarian
  GI50: > 100 µM
  TGI: > 100 µM
KM12 colon
  GI50: > 100 µM
  TGI: > 100 µM
MDA-MB-231 breast
  GI50: > 100 µM
  TGI: > 100 µM
A498 renal
  GI50: > 100 µM
  TGI: > 100 µM
HOP-62 NSCLC
  GI50: > 100 µM
  TGI: > 100 µM
NCI-H226 lung
  GI50: > 100 µM
  TGI: > 100 µM
CCRF-CEM leukemia
  GI50: > 100 µM
  TGI: > 100 µM
786-0 renal
  GI50: > 100 µM
  TGI: > 100 µM
MALME-3M melanoma
  GI50: > 100 µM
  TGI: > 100 µM
RPMI-8226 leukemia
  GI50: > 100 µM
  TGI: > 100 µM
DU-145 prostate
  GI50: > 100 µM
  TGI: > 100 µM
CAKI-1 renal
  GI50: > 100 µM
  TGI: > 100 µM
A549 NSCLC
  GI50: > 100 µM
  TGI: > 100 µM
SF-268 CNS
  GI50: > 100 µM
  TGI: > 100 µM
NCI-H460 lung
  GI50: > 100 µM
  TGI: > 100 µM
NCI-H522 lung
  GI50: > 100 µM
  TGI: > 100 µM
HCT-116 colon
  GI50: > 100 µM
  TGI: > 100 µM
OVCAR-5 ovarian
  GI50: > 100 µM
  TGI: > 100 µM
SK-MEL-5 melanoma
  GI50: > 100 µM
  TGI: > 100 µM
M14 melanoma
  GI50: > 100 µM
  TGI: > 100 µM
